Experimental findings from patent US9200046B2, “Reporter system for high throughput screening of compounds and uses thereof” (priority 2011, dated 2015) are described below.

The test system of data set [1] is Neh2-luciferase fusion protein in SH-SY5Y cells. Format: cell-based, human. Conditions: for lag-period of reporter activation: time-course of Neh2-luc activation. How it is done: Cells were plated at the density of 25,000 cell per well using a WellMate multichannel dispenser from Matrix (Thermo Fisher Scientific) and grown overnight on DMEM/F12+GlutaMAX (100 μl per well). Then the inhibitor was added, and the plates were incubated for a fixed time interval; the medium was removed, cells lysed in 20 μL (out of which 4 μL were taken for protein measurement), then BrightGlo™ reagent (Promega) was added to the wells and luciferase activity measured on a luminometer Lmax11384 (Molecular Devices). The reporter activation was normalized to the background luminescence divided by protein concentration. Kinetics of reporter activation were measured by adding varied fixed concentrations of an inhibitor at different time points followed by simultaneous cell lysis, protein determination, and luciferase activity measurement in the whole 96-well plate; this assay format minimizes experimental error originating from the well-known instability of luciferase reagent.

For another data set, the target named is T1, FLAG-Keap1 (Homo sapiens, UniProt Q14145).
T1 construct: expressed in transfected cells; host or cells: HEK293 (transient expression)
T1 sequence (Q14145 whole entry): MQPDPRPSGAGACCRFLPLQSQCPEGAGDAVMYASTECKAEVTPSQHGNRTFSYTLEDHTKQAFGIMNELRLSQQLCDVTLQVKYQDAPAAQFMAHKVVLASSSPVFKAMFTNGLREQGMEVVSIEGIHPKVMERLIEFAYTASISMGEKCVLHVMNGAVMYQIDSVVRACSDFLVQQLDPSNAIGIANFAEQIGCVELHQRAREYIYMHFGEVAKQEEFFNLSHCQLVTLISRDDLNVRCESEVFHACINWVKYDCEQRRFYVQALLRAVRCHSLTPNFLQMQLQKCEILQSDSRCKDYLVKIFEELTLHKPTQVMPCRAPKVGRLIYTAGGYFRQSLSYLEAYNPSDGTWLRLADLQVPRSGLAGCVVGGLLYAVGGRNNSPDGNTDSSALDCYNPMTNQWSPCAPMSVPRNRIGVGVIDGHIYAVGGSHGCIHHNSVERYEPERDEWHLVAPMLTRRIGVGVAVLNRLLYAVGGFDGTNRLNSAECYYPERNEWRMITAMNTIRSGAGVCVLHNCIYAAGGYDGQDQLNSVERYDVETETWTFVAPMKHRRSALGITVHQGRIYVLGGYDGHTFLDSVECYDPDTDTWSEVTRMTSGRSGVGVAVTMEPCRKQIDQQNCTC
Type of data set: cell-based. How it is done:
FIG. 12. Supporting to FIG. 5. […] A: structural formulas of the compounds used; B: competition with Keap1 labeling. HEK293 cells transiently expressing FLAG-Keap1 were incubated with 200 μM competing compounds (sulforaphane, fisetin, quercetin, gedunin, TBHQ, ciclopirox, geldanamycin) and then further incubated with 10 μM sulfoxythiocarbate-alkyne (STCA) for 30 min at 37° C. FLAG-Keap1 was immunoprecipitated from cell lysates, subjected to click reaction with biotin azide on beads, and eluted with SDS-loading buffer. […] All values are presented as mean±SEM.
Keap1 labeling experiments were performed as described previously (AHN et al., Proc. Natl. […]. USA., 107: 9590-9595 (2010)) with following modifications. HEK293 cells transiently expressing FLAG-Keap1 were incubated with 200 μM competing compounds (sulforaphane, fisetin, quercetin, gedunin, TBHQ, ciclopirox, geldanamycin) in serum-free DMEM for 1 h. After washing with PBS, cells were further incubated with 10 μM sulfoxythiocarbate-alkyne (STCA) for 30 min at 37° C. FLAG-Keap1 was immunoprecipitated from cell lysates, subjected to click reaction with biotin azide on beads, and eluted with SDS-loading buffer. Eluted samples were immunoblotted with Streptavidin-HRP (Pierce) and anti-FLAG antibodies (Sigma).

The test system of another data set is primary immature neurons. Description: Astrocyte-dependent neuroprotection in astrocyte-neuron coculture with HCA. Format: cell-based, rat. Particulars: astrocytes pretreated 24 hr, neurons plated with HCA.
The next data set concerns astrocytes. Description: Intracellular GSH levels in astrocytes. Format: cell-based, rat.
In data set [2] the test system is Immature neurons.
For the next data set, the system named is ARE-luc reporter. Description: ARE-luc reporter time-course. Type of data set: cell-based, human.
The next data set has as its target Nrf2-Keap1 complex (Homo sapiens, UniProt Q14145). Description: cell-based. Format: cell-based. Particulars: for activation at 16 µM / activation at 32 µM: 3 h; for activation at 16 µM: read-out: Activation 100 nL; for activation at 32 µM: read-out: Activation 200 nL.
The subject of data set [3] is Immature neurons. Description: Neuronal viability of isolated immature neurons treated with compounds. Conditions: 24 hours.
The mark [4] stands for this setting: 200 μM competing compound, HEK293 cells, then 10 μM STCA 30 min.
Setting [5] is: Table 1A, 100 nL compound, screen run at 16 and 32 μM, 3 hr.
Setting [6] is: Table 1A, 200 nL compound, screen run at 16 and 32 μM, 3 hr.
Where [7] appears, read: Table 2, 100 nL compound, screen run at 16 and 32 μM, 3 hr.
[8] abbreviates: Table 2, 200 nL compound, screen run at 16 and 32 μM, 3 hr.

“Also recorded” adds a separate entry of the source. Where two headings read alike, the source gives them in different places.

Nrf2-Keap1 complex, sequence (Q14145 whole entry, one chain of several): as the sequence (Q14145 whole entry) above
Experimental for ARE-luc reporter: Human neuroblastoma SH-SY5Y cells were transfected with 1 mg of pcDNA3-Neh2LUC10, pcDNA3-ODDLUC8, pcDNA3-LUC3, and ARE-LUC/pcDNA3 (5:1) by using Lipofectamine—2000 (Invitrogen). Transfected cells were grown in the presence of 500 mg/ml Geneticin (GIBCO-Invitrogen) on DMEM/F12+ GlitaMAX (Dulbecco's modified Eagle medium Nutrient Mixture F-12 (Ham)(1:1) 1×, GIBCO 10565) medium.

In the case of `COC1=C2C[C@@H](C)C[C@H](OC)[C@H](O)[C@@H](C)/C=C(\C)[C@H](OC(N)=O)[C@@H](OC)/C=C\C=C(/C)C(=O)NC(=CC1=O)C2=O` [geldanamycin, reference compound], in data set [1] (in the range of 0.5-1.5 μM), the activation effect is reported as 2-3 fold.
As to `Nc1ccccc1N` [oPD, ortho-phenylene diamine], in data set [1], the “lag-period of reporter activation” value is 40 to 50 min.
With `C[S+]([O-])CCCCN=C=S` (centres unmarked) [sulforaphane, reference compound], the “competition with Keap1 labeling by STCA” value at FLAG-Keap1 is reported as “decent competition; also recorded: inhibits Keap1 labeling completely”. For the same compound, the “type of reporter activation by time-course” value (“type of reporter activation” for short) in data set [1] was “immediate activation but gradual stabilization over time”.
As for `Oc1ccccc1O` [catechol, o-catechol], the “lag-period of reporter activation” value in data set [1] was found to be 20 min.
For `Cc1cc(C2CCCCC2)n(O)c(=O)c1` [ciclopirox, reference compound], on FLAG-Keap1 (setting [4]), the “competition with Keap1 labeling by STCA” value was “no competition with Keap1 labeling”.
Take `CC(Cc1ccc(O)c(O)c1)C(C)Cc1ccc(O)c(O)c1` (centres unmarked) [NDGA, nordihydroguaiaretic acid]: the “competition with Keap1 labeling by STCA” value on FLAG-Keap1 (setting [4]) was “poorly compete with Keap1 labeling”. Besides, the astrocyte-dependent neuroprotection entry in the data set on primary immature neurons is on record as “induced significant neuroprotection”. Moreover, the GSH in astrocytes result with astrocytes (24 hr, 10 μM NDGA, 24 μM gedunin, 20 μM fisetin) is reported as “clearly show a boost in GSH”. In addition, the “type of reporter activation” value in data set [1] was “activation via a switch or receptor”. For the same compound, in the data set on Immature neurons [2], the “toxicity in isolated neurons” value is on record as “did not induce toxicity in isolated neurons”.
In the case of `CC(C)(C)c1cc(O)ccc1O` [TBHQ, tert-butylhydroquinone, reference compound], the “competition with Keap1 labeling by STCA” value at FLAG-Keap1 (setting [4]) was “very modest competition; also recorded: competes very poorly”. In addition, in data set [1], the “type of reporter activation” value is “immediate activation but gradual stabilization over time”. The “activation of Neh2-luc reporter” value in data set [1] (positive control, FIG. 1B) is reported as “more than 10 fold”. The “toxicity in isolated neurons” value in the data set on Immature neurons [2] is on record as “neurotoxic effects”. In the data set with ARE-luc reporter, the “delay of ARE-luc reporter response” value was 3 h.
In the case of `Nc1nc(N)c2nc(-c3ccccc3)c(N)nc2n1` [reference compound], at Nrf2-Keap1 complex, the activation at 16 µM turned out to be 405% and the activation at 32 µM was determined as 23%. Also, the “100 nL (luminescence)” value at Nrf2-Keap1 complex (setting [5]) came to 3914. For the same compound, the “200 nL (luminescence)” value on Nrf2-Keap1 complex (setting [6]) amounted to 872.
As to `S=c1ccss1` [3H-1,2-DITHIOLE-3-THIONE], at Nrf2-Keap1 complex, the activation at 16 µM was 295% and the activation at 32 µM was 127%. Further, the “100 nL (luminescence)” value on Nrf2-Keap1 complex (setting [7]) is 5416. Also, the “200 nL (luminescence)” value at Nrf2-Keap1 complex (setting [8]) came to 2832.
Take `O=c1c(O)c(-c2ccc(O)c(O)c2)oc2cc(O)cc(O)c12` [quercetin, 3,5,7,3′,4′-pentahydroxyflavone]: the “competition with Keap1 labeling by STCA” value at FLAG-Keap1 (setting [4]) was “very modest competition”. Moreover, in data set [1], the “type of reporter activation” value was “immediate activation but gradual stabilization over time”.
On to “METHYL7-DESHYDROXYPYROGALLIN-4-CARBOXYLATE”, for which, on Nrf2-Keap1 complex, the “Activation 100 nL” value was 466% and the “Activation 200 nL” value is on record as 147%. For the same compound, the “100 nL (luminescence)” value on Nrf2-Keap1 complex (setting [7]) was found to be 4444. Moreover, the “200 nL (luminescence)” value on Nrf2-Keap1 complex (setting [8]) stood at 3792.
The like results for `O=C1C[C@@H](c2ccc(O)c(O)c2)Oc2cc(O)cc(O)c21` [ERIODYCTOL] were, in that order, 76%, 18%, 1028 and 768.
On to `O=C1OCCN1/N=C/c1ccc([N+](=O)[O-])o1` [FURAZOLIDONE, reference compound], for which, at Nrf2-Keap1 complex, the “100 nL (luminescence)” value was found to be 876, the “200 nL (luminescence)” value is 1288, the activation at 16 µM was determined as 43% and the activation at 32 µM is 45%.
As to `O=c1ccn([C@@H]2O[C@H](COP(=O)([O-])OP(=O)([O-])OP(=O)([O-])O)[C@@H](O)[C@H]2O)c(=O)[nH]1.[Na+].[Na+].[Na+]` [URIDINETRIPHOSPHATETRISODIUM], on Nrf2-Keap1 complex, the “Activation 100 nL” value is given as 28% and the “Activation 200 nL” value is 16%. Besides, the “100 nL (luminescence)” value at Nrf2-Keap1 complex (setting [7]) amounted to 612. In addition, the “200 nL (luminescence)” value at Nrf2-Keap1 complex (setting [8]) stood at 708.
Take `O=c1c(O)c(-c2ccc(O)c(O)c2)oc2cc(O)ccc12` [FISETIN]: the “competition with Keap1 labeling by STCA” value at FLAG-Keap1 (setting [4]) is “very modest competition; also recorded: poorly compete with Keap1 labeling”. In the data set on primary immature neurons, the astrocyte-dependent neuroprotection result is “induced significant neuroprotection”. Moreover, the GSH in astrocytes entry with astrocytes is “does not show the same level of enhancement”. The “type of reporter activation” value in data set [1] is reported as “activation via a switch or receptor”. Further, in the data set on Immature neurons [3], the “toxicity in isolated neurons” value was “did not induce toxicity in isolated neurons”. Besides, at Nrf2-Keap1 complex, the activation at 16 µM came out at 224% and the activation at 32 µM stood at 38%. For the same compound, on Nrf2-Keap1 complex (setting [7]), the “100 nL (luminescence)” value stood at 3360. Moreover, the “200 nL (luminescence)” value on Nrf2-Keap1 complex (setting [8]) came out at 1320.
For `CC(=O)O[C@@H]1C[C@H]2C(C)(C)C(=O)C=C[C@]2(C)[C@H]2CC[C@@]3(C)[C@H](c4ccoc4)OC(=O)[C@H]4O[C@]43[C@@]21C` [GEDUNIN], on FLAG-Keap1 (setting [4]), the “competition with Keap1 labeling by STCA” value was “very modest competition; also recorded: poorly compete with Keap1 labeling”. In the data set on primary immature neurons, the astrocyte-dependent neuroprotection result was “induced significant neuroprotection”. Moreover, the GSH in astrocytes entry in the data set with astrocytes is “clearly show a boost in GSH”. Further, the “type of reporter activation” value in data set [1] was “immediate activation but gradual stabilization over time; also recorded: immediate effect”. Further, the “toxicity in isolated neurons” value in the data set on Immature neurons [3] was “did not induce toxicity in isolated neurons”. Besides, at Nrf2-Keap1 complex, the activation at 16 µM came to 222% and the activation at 32 µM was 184%. In addition, on Nrf2-Keap1 complex (setting [7]), the “100 nL (luminescence)” value was determined as 4812. Besides, the “200 nL (luminescence)” value at Nrf2-Keap1 complex (setting [8]) came out at 3708.
Consider `CC(=O)O[C@H]1CCC2(C)C3=C(CCC2C1(C)C)[C@@]1(C)CC[C@@H](C(C)CCC=C(C)C)[C@]1(C)CC3` (some centres unmarked) [EUPHOLACETATE], for which, on Nrf2-Keap1 complex, the “Activation 100 nL” value is 89% and the “Activation 200 nL” value is listed as 111%. Moreover, on Nrf2-Keap1 complex (setting [7]), the “100 nL (luminescence)” value turned out to be 1710. Moreover, the “200 nL (luminescence)” value at Nrf2-Keap1 complex (setting [8]) stood at 2020.
In the case of `CCc1cccc(CC)c1N(COC)C(=O)CCl` [ALACHLOR], at Nrf2-Keap1 complex, the activation at 16 µM is 261% and the activation at 32 µM was determined as 194%. The “100 nL (luminescence)” value at Nrf2-Keap1 complex (setting [7]) was 3852. The “200 nL (luminescence)” value on Nrf2-Keap1 complex (setting [8]) stood at 4892.
Regarding `Nc1ncnc2c1ncn2C1O[C@H](COP(=O)(O)O)[C@@H](O)[C@H]1O` (some centres unmarked) [ADENOSINEPHOSPHATE, reference compound], on Nrf2-Keap1 complex, the activation at 16 µM is 27% and the activation at 32 µM is 14%. Moreover, the “100 nL (luminescence)” value on Nrf2-Keap1 complex (setting [5]) amounted to 924. Further, on Nrf2-Keap1 complex (setting [6]), the “200 nL (luminescence)” value came to 556.
`COc1cc(/C=C/C(=O)CC(=O)/C=C/c2ccc(O)c(OC)c2)ccc1O` [CURCUMIN]: on Nrf2-Keap1 complex, the activation at 16 µM was 252% and the activation at 32 µM was -4%. The “100 nL (luminescence)” value on Nrf2-Keap1 complex (setting [7]) amounted to 4208. In addition, the “200 nL (luminescence)” value at Nrf2-Keap1 complex (setting [8]) was determined as 264.
The like results for `CC(C)=CCC[C@@H](C)[C@@H]1CC[C@]2(C)C3=C(CC[C@@]12C)[C@@]1(C)CC[C@H](O)C(C)(C)[C@@H]1CC3` [EUPHOL] were, in that order, 138%, 74%, 1572 and 2064.
